Experimental data published in US11426372B2, “Glycolic acid protects against ischemic insults” (priority 2015, dated 2022).
“Also recorded” adds a separate entry of the source.

Legend:
[1] = estimated; cited from earlier work
primary cortical neurons = assay: In vitro model of stroke: nuclear size (apoptotic nuclei) of cortical neurons 24 hours after ischemia; format: cell-based, mouse; details: for number of apoptotic neurons (nuclear size <30 μm2): vs non-treated neurons during ischemia
Protocol: (§1) In order to mimic neuronal ischemia in vitro, primary cortical neurons were culture in vitro for 6 days. After this time either a total ischemia or a partial ischemia were performed.
(§2) Total ischemia: on the day of ischemia medium was changed to PBS (pH=6.5) that had been previously bubbled with N2 to remove all O2. In the case of total ischemia, in order to ensure total lack of oxygen in the PBS, dithionite was added to the PBS to capture the remaining diluted O2. This process ensured the absence of both nutrients and O2 as it would be expected at the core of a stroke.
(§3) Penumbra: to mimic penumbra, normal medium was changed to a mixture of medium without antioxidants and PBS (50:50) and bubbled with N2 to remove diluted O2.
(§4) In both protocols neurons were then placed inside a gas chamber filled with N2 and left there for 45 minutes (ischemia) or 1 hour (penumbra). In order to mimic reperfusion, PBS or medium/PBS were then substituted with medium without antioxidants and left in the incubator overnight.
(§5) Normoxia: to mimic normoxia, normal medium was changed with normal medium without antioxidants and placed in the incubator under normal conditions for 45 minutes or 1 hour. Then medium was exchanged again with normal medium and left overnight in the incubator.
(§6) In all conditions neurons were fixed and stained with DRAQS (a nuclear marker) and NeuN (a neuronal marker) on the next day. Images were taking with an OPERA microscope and analysed with the help of FIJI Image analysis software. The more reliable outcome parameter to detect apoptosis was the surface of the nuclei in μm2 and the number of neurons alive after 24 hours. As it can be observed in FIGS. 1 and 2, the frequency distribution of nuclear sizes dramatically changed between normoxia and ischemia without treatment.

Rabbits = assay: Model of intestinal ischemia (mesenteric ligation); format: in vivo, rabbit; details: injected intraarterially upon removal of the ligation or systemically before ligation
Protocol: Rabbits are anesthetized with 3% barbital, 30-35 mg/intravenous injections. The small intestine is reflected to the left of the abdominal incision and then the SMA and SMV are identified. Mesenteric ischemia is confirmed when the mesenteric pulsation is lost and the intestine becomes pale. Ligation is maintained for 2, 4 and 6 hours. […] After removing the ligation, the animal is led free for 1 and 3 days and then is intracardially perfused. Intestinal samples are embedded in paraffin and sections are stained with a nuclear staining. Nuclear size distribution is analysed in different ischemic areas and compared to that of non-ischemic areas.

cardiomyocytes = assay: Ischaemia-reperfusion in isolated cardiomyocytes; format: cell-based, mouse; details: simulated ischaemia-reperfusion
Protocol: Ischaemia-reperfusion in isolated cardiomyocytes: Freshly isolated cardiomyocytes are obtained from mouse hearts by retrograde collagenase perfusion. Rhod-shaped calcium tolerant cardiomyocytes are selected by differential centrifugation and albumin gradient and are plated on laminin-coated glass bottom coverslips (for confocal studies) or on 4% fetal calf serum pretreated multiwell dishes. To simulate IR in cardiomyocytes, two independent approaches are used: anoxic workstation under controlled atmosphere of 0% 02-5% H2 at 37° C. (Invivo2 Workstation Ruskinn, Bridgend, UK) and microscope-adapted microperfusion chamber (RC-43C/BS4 64-0371 Harvard Apparatus, Holliston, Mass., USA). For the anoxic workstation, cardiomyocytes are plated in 96-wells dishes, placed within the anoxic atmosphere and incubated for 15 min with glucose-free acidic ischaemic buffer (previously deoxygenated in an autoclave and bubbled with N2 for 20 min) containing (in mmol/l): 140 NaCl, 3.6 KCl, 1.2 MgSO4, 1 CaCl2, 20 HEPES, pH 6.4, and supplemented with 4 μmol/l resazurin, 100 μmol/l ascorbic acid, 0.5 mmol/l dithionite and 100 U/ml superoxide dismutase. For reperfusion, ischaemic buffer is washed out and oxygenated, glucose-containing control buffer (pH 7.4) is added for 10 min. […]

mouse cortical neurons [2] = assay: In vitro model of stroke: number of cortical neurons alive / survival rate 24 hours after ischemia; format: cell-based; details: for survival rate of mouse cortical neurons 24 hours after ischemic insult: 45 minutes ischemic insult, P<0.05; for number of cortical neurons alive / survival rate 24 hours after ischemia: penumbra like conditions, 60 minutes ischemic insult, P<0.001
Protocol: as §1, §2, §3, §4, §5, §6

Mice [3] = assay: Transient filament MCA occlusion model (fMCAo) with infarct volumetry; format: in vivo, mouse
From the text: Transient filament MCA occlusion model (fMCAo): Mice are anaesthetized with isoflurane delivered in a mixture of 30% O2 and 70% N2O. An incision is made between the ear and the eye in order to expose the temporal bone. A laser Doppler probe is affixed to the skull above the MCA territory, and mice are placed in the supine position. An incision is made in the midline neck region, and the common carotid artery and left external carotid artery are isolated and ligated; a 2-mm silicon-coated filament (Doccol, #701912PKRe) is inserted into the internal carotid artery, and MCA occlusion is confirmed by a corresponding decrease in blood flow (i.e., a decrease in the laser Doppler flow signal). After 60 minutes of occlusion the filament is removed and either the vehicle, or 5, 10, 20 or 40 mM of GA (concentration for the total expected infact area) is injected. […]
Infarct volumetry: Brains are removed 24 and 72 hours after stroke induction and frozen on powdered dry ice. […] Infarct area is measured in each section using ImageJ software (NIH). In the fMCAo model, an edema correction for infarct volume is calculated using the following formula: (Ischemic area)=(Direct lesion volume)−[(Ipsilateral hemisphere)−(Contralateral hemisphere)] was performed. The total infarct volume is calculated by integrating the measured areas and intervals between the sections.

mouse hearts = assay: Ischaemia-reperfusion in perfused hearts (Langendorff); details: 60 min global ischaemia, 60 min reperfusion with 5, 10, 20 or 40 mM glycolic acid
Protocol: Ischaemia-reperfusion in perfused hearts: Ischemia reperfusion in perfused hearts is performed. After sodium pentobarbital overdose (150 mg/kg i. p.), mouse hearts are quickly excised and perfused through the aorta in a Langendorff apparatus with a modified Krebs-Henseleit bicarbonate buffer (in mmol/l: 140 NaCl, 24 NaHCO3, 2.7 KCl, 0.4 KH2PO4, 1 MgSO4, 1.8 CaCl2 and 11 glucose, 95% O2-5% CO2 at 37° C.) at constant flow perfusion pressure of 80 mmHg. Left ventricular (LV) pressure is monitored with a water-filled latex balloon inserted into the LV and inflated to obtain an end-diastolic pressure (LVEDP) of 6-8 mmHg. LV developed pressure (LVdevP) is calculated as the difference between LV systolic pressure and LVEDP. After 30 minutes (min) of normoxic perfusion, mouse hearts are subjected to 60 min of normothermic global ischaemia followed by 60 min of reperfusion with vehicle or 5, 10, 20 or 40 mM glycolic acid. Lactate dehydrogenase (LDH) activity is spectrophotometrically measured in samples collected from the coronary effluent at different times throughout the perfusion period and was considered an indirect measure of necrosis. After 60 min of reperfusion, heart slices were incubated in […] to outline the area of necrosis. Hearts submitted to normoxic perfusion during 120 min served as time control series. […]

mouse cortical neurons [4] = assay: In vitro model of stroke: LDH released to the media (PIERCE LDH cytotoxicity assay); format: cell-based; details: for concentration of LDH in the media 24 hours after the ischemic insult: 45 minutes ischemic insult, vs ischemic non-treated neurons, p<0.05
Protocol: as §1, §2, §3, §4, §5
Additionally, the amount of LDH released to the media was determined. LDH is released to the media during necrosis (immediate cell death after an insult, 0-6 hours after insult) and in the late stages of apoptosis in vitro (6 to 24 hours after insult) through the disruption of the plasmatic membrane. For this we used the PIERCE LDH CYTOTOXICITY ASSAY from Life Technologies.

Mice [5] = assay: In vivo model of limb ischemia (unilateral femoral ligatures); set-up: species or system mouse; details: injected systemically when ligatures are removed or before ligation
Protocol: In vivo model of limb ischemia: Mice are submitted to unilateral femoral ligatures for a few hours (4-5) to a few days. Glycolic acid or vehicle are injected systemically when the ligatures are removed. Alternatively, glycolic acid is given before ligation systemically. Ischemia is confirmed by clinical scores (tissue and functional damages by gait analysis) and methoxyisobutylisonitrile (MIBI) scintigraphies at different days 0, 4, 6, 10, 20, and 30. Histological analysis is also performed to determine the extension of the ischemia.

## OCCOCCO [diethylene glycol]
[1]
  minimum toxic dose: 0.14 mg glycolic acid per kg of body weight

## O=C(O)CO [glycolic acid, 2-hydroxyethanoic acid]
Primary cortical neurons; 5 mM pretreatment or 10 and 20 mM during reperfusion, vs control neurons that underwent ischemia without treatment
  more normal size nuclei (nuclear surface >30 μm2) 24 hours after ischemia: up to 65%
Primary cortical neurons; 10 mM during reperfusion, p<0.01
  number of apoptotic neurons (nuclear size <30 μm2): reduces the number of apoptotic neurons
Primary cortical neurons; 10 mM glycolic acid during reperfusion
  shift of the nuclear size to smaller apoptotic nuclei induced by ischemia: partially reversed
Primary cortical neurons; 20 mM during reperfusion, p<0.01
  number of apoptotic neurons (nuclear size <30 μm2): reduces the number of apoptotic neurons
Primary cortical neurons; 20 mM glycolic acid during reperfusion
  shift of the nuclear size to smaller apoptotic nuclei induced by ischemia: partially reversed
Primary cortical neurons; 4 days pretreatment with 5 mM glycolic acid
  shift of the nuclear size to smaller apoptotic nuclei induced by ischemia: partially reversed
Primary cortical neurons; penumbra conditions
  protective effect (rescue): 100%
Primary cortical neurons; pre-treatment with 5 mM, p<0.05
  number of apoptotic neurons (nuclear size <30 μm2): reduces the number of apoptotic neurons
Primary cortical neurons; pretreatment with 2.5 mM glycolic acid
  shift of the nuclear size to smaller apoptotic nuclei induced by ischemia: partially reversed
Rabbits
  number of apoptotic nuclei and ischemic areas: reduce the number of apoptotic nuclei and the ischemic areas
cardiomyocytes
  number of cardiomyocytes alive 24 hours after ischemia: increased number of cardiomyocytes alive
Mouse cortical neurons [2]; 2.5 mM during reperfusion
  survival rate of mouse cortical neurons 24 hours after ischemic insult: increases the survival rate
Mouse cortical neurons [2]; 5 mM during reperfusion
  survival rate of mouse cortical neurons 24 hours after ischemic insult: increases the survival rate
Mouse cortical neurons [2]; 5 mM during reperfusion, listed as GA
  survival rate of mouse cortical neurons 24 hours after ischemic insult: enough to rescue the effect of the ischemia
Mouse cortical neurons [2]; 10 mM during reperfusion
  number of cortical neurons alive / survival rate 24 hours after ischemia: increased cortical neurons survival; also recorded: increases the survival rate
Mouse cortical neurons [2]; 20 mM during reperfusion
  number of cortical neurons alive / survival rate 24 hours after ischemia: increases the survival rate
Mouse cortical neurons [2]; concentrations lower than 5 mM given during reperfusion (data not shown)
  survival of mouse cortical neurons: did not increase survival
Mouse cortical neurons [2]; mouse cortical neurons, vs non-treated neurons undergoing ischemia, applied before ischemia or during reperfusion
  neuronal cell death / protection against ischemia, 24 hours after ischemia: protects neurons from ischemia; also recorded: significantly decreases neuronal cell death; also recorded: protects against different degrees of ischemia both when applied before or after the acute ischemic insult
Mouse cortical neurons [2]; pretreatment with 2.5 mM
  protection of neurons in normoxia conditions: protects neurons against the adverse conditions inherent to an in vitro setting
Mouse cortical neurons [2]; pretreatment with 5 mM
  protection of neurons in normoxia conditions: protects neurons against the adverse conditions inherent to an in vitro setting
Mice [3]; 5, 10, 20 or 40 mM GA injected after 60 minutes of occlusion
  decrease in blood flow: less severe decrease in blood flow
Mice [3]; brains removed 24 and 72 hours after stroke induction
  infarct volume: reduce the infarct volume size
Mouse hearts
  necrosis (LDH activity, area of necrosis): reduced necrosis compared to controls
Mouse cortical neurons [4]; 2.5 mM during reperfusion
  concentration of LDH in the media 24 hours after the ischemic insult: decrease the concentration of LDH significantly; also recorded: reduces apoptosis
Mouse cortical neurons [4]; 5 mM during reperfusion
  concentration of LDH in the media 24 hours after the ischemic insult: decrease the concentration of LDH significantly; also recorded: reduces apoptosis
Mouse cortical neurons [4]; concentrations lower than 5 mM given during reperfusion
  concentration of LDH in the media: decreased the concentration of LDH in the media
Mouse cortical neurons [4]; normoxic conditions, 2.5 and 5 mM
  effect on LDH levels in normoxia: did not observe any difference between treatments; also recorded: cannot be observed
Mice [5]
  extension of the ischemia and cell death: reduce the extension of the ischemia and cell death
